From PMC9519446, “Discovery of an Orally Active Benzoxaborole Prodrug Effective in the Treatment of Chagas Disease in Non-human Primates” (Nature microbiology, 2022)
Several values for one entry are separate records, joined by “and”; a condition that tells them apart may be missing. Equal values may be shown once. Read-outs that look alike come from different tables or passages of the source. Each block holds one compound with its values, some of them ahead of it.

Legend:
[1] = system: T. cruzi extracellular amastigotes; experiment: Extracellular amastigote assay (ATPlite luminescence, 48 hours); assay type: cell-based; conditions: Trypanosoma cruzi, extracellular amastigotes
Protocol: (§1) The in vitro anti-T. cruzi amastiogote activity assay was performed and optimized based on the protocol described previously. The change in tdTomato fluorescence intensity was determined as a measurement of growth over 72 hours of culture. For assaying drug effects on extracellular amastigotes, trypomastigotes were collected from infected Vero cell cultures and converted in acidic media as previously described. Amastigotes (50,000/well) were incubated with 2-fold serial dilutions of compounds for 48 hours. The ATP production was used as an indication of growth in this case, and was measured by ATPlite Luminescence ATP Detection Assay System (PerkinElmer). Both fluorescence and luminescence were read using a BioTek Synergy Hybrid Multi-Mode reader equipped with the software Gene5 v 2.0 (BioTek). The dose-response curve was generated by […] analysis with GraphPad Prism v9.4.0 (GraphPad Software).

[2] = system: T. cruzi intracellular amastigotes; experiment: In vitro anti-T. cruzi intracellular amastigote growth inhibition assay (tdTomato fluorescence over 72 hours, Vero cells); assay type: cell-based, Trypanosoma cruzi; conditions: for activity at 0.00407 µM: [uM] -2.39 [sic]
Protocol: as §1

[3] = system: CPSF3-OE T. cruzi intracellular amastigotes; experiment: microbe, parasite or virus in culture; assay type: cell-based; conditions: Trypanosoma cruzi; for IC50: read-out: CPSF3-OE IC50, intracellular amastigotes; for activity at 0.1 µM / activity at 0.4 µM / activity at 0.7 µM / activity at 1 µM / activity at 1.3 µM / activity at 1.6 µM: 72 h, read-out: % of maximum, CPSF3-OE
Protocol: as §1
The CPSF3 gene was amplified using primers ‘[…]’ and ‘[…]’, and integrated into the pTrex vector [47] by NEBuilder HiFi DNA assembly (New England Biolabs). The construct of pTrex-CPSF was then transfected into Brazil tdTomato epimastigotes and selected by 60ug/ml blasticidin.
To confirm the CPSF overexpression in the selected transfectants, RNA was extracted as previously described and converted to cDNA using SuperScript Reverse Transcriptase (Invitrogen). Quantitative PCR reactions were performed in triplicate on the C1000 Touch Bio-Rad CFX96 real-time PCR detection system for CPSF using primer sets CPSF-1 (5'-[…]-3' and 5'-[…]-3') and CPSF-2 (5'-[…]-3' and 5'-[…]-3') in both control and CPSF over-expressing parasites, and the expression level was normalized to tubulin which was amplified using primers: ‘[…]’ and ‘[…]’.

[4] = system: TcCBP KO T. cruzi intracellular amastigotes; experiment: microbe, parasite or virus in culture; assay type: cell-based; conditions: Trypanosoma cruzi, read-out: TcCBP KO IC50
Protocol: as §1
The CBPs knockout was produced using ribonucleoprotein (RNP) complexes as previously described. Briefly, Brazil tdTomato strain epimastigotes were electroporated with RNP complexes containing SaCas9 and an sgRNA targeting CBP gene TcBrA4_0048170, plus a repair template containing stop codons in all three reading frames and the M13 sequence for use as a PCR anchor. The sgRNA targeted the ‘[…]” sequence. After 2 days of recovery, single-cell clones were derived by depositing epimastigotes into a 96-well plate at a density of 0.5 cell/well by using a MoFlo Astrios EQ cell sorter (Beckman Coulter). DNA isolation was performed for clones, and primer pair of 5’-[…]-3’ and 5’- […] -3’ was used for amplifying the wild type allele, while primer pair of M13-F: 5’- […] -3’ and 5’- […] -3’ was used for amplifying the mutant allele.

T. cruzi Brazil strain = experiment: Mouse cure assays (daily oral treatment, immunosuppression, qPCR of skeletal muscle, blood microscopy, hemoculture); assay type: in vivo, C57BL/6 mice; conditions: individual mice
Protocol: Male or female C57BL/6 mice were intraperitoneally infected with 10^4 trypomastigotes of the Brazil strain. Mouse infection was confirmed at 25-30 dpi by detection of CD8^+ T cells specific against the T. cruzi TSKb20 peptide in blood. Compounds resuspended in 1% carboxymethyl cellulose and 0.1% Tween 80, were administered daily by gavage at the specified concentrations. In order to optimally detect persistent infection, immune responses in the mice were suppressed by intraperitoneal injection of four doses of cyclophosphamide every 2-3 days (200 mg/kg/day), beginning one week after the end of therapeutic treatment. At the end of the immunosuppression regimen, peripheral blood was checked under light microscope for parasites and cultured in LDNT media. Mouse skeletal muscle samples were obtained at the end of the immunosuppression and processed for T. cruzi-DNA detection by qPCR as previously described.

[5] = system: tdTomato expressing T. cruzi (CL strain); experiment: Rapid in vivo assay: footpad infection, single oral dose, fluorescence imaging 2 and 4 dpi (proliferation index);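 also: single oral dose of 50 mg/kg given at 2 dpi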; parameters: species or system C57BL/6 mice; conditions: Fig. 3a; individual footpads
Protocol: Fluorescent intensity of the feet was measured at 2 dpi before compound administration and at 4 dpi in the Maestro in vivo imaging system equipped with the software Maestro 2.1.0 (CRi) as previously described. The proliferation index was estimated as PI=[(T4d – T2d)/(mUnt4d-mUnt2d)]*100; where T4d and T2d are the fluorescence intensity of the feet of the treated animals at days 4 and 2 post-infection respectively; mUnt4d and mUnt2d are the average fluorescence intensity of the feet of the untreated animals at 4 and 2 dpi respectively.

T. cruzi = conditions: T. cruzi-infected NHPs; cited from earlier work
[6] = 48 hours, Fig. 5f, Extended Data Fig. 4d, read-out: IC50 (nM) T. cruzi extra-
[7] = Trypanosoma cruzi, Vero, in vitro, Fig. 1a, Extended Data Fig. 1a, read-out: T. cruzi IC50
[8] = Trypanosoma cruzi, Vero, intracellular T. cruzi, Fig. 5f, read-out: IC50 (nM) T. cruzi intra-
[9] = Trypanosoma cruzi, Vero, 72 h, read-out: % of maximum, WT, single replicates
[10] = Trypanosoma cruzi, Vero, read-out: WT IC50, WT intracellular amastigotes, control of CPSF3-OE comparison
[11] = Trypanosoma cruzi, Vero, read-out: WT IC50, WT intracellular amastigotes, control of TcCBP KO comparison

Compound: CC(C)[C@H](NC(=O)c1ccc2c(c1)B(O)OC2)C(=O)OCc1ccccc1 [AN10443]
- IC50 [1, 6]: 13 nM
- IC50 [2, 7]: 670 nM

Compound: CC(C)[C@H](NC(=O)c1ccc2c(c1F)B(O)OC2)C(=O)OCc1ccccc1 [AN11622]
- IC50 [1, 6]: 37 nM
- IC50 [2, 8]: > 1250 nM

- IC50 [1, 6]: 1.2 nM
Compound: Cc1c(C(=O)N[C@H](C(=O)OCc2ccccc2)C(C)C)ccc2c1B(O)OC2 [AN11735]

Compound: Cc1c(C(=O)NC(C(=O)OCc2ccc(F)cc2)C(C)C)ccc2c1B(O)OC2 (stereo not shown) [AN11736, 4-fluorobenzyll-valinate amide benzoxaborole]
- activity at 0.00407 µM [2, 9]: 46%
- IC50 [2, 10]: 3.2 nM
- IC50 [2, 11]: 3.2 nM
- % of maximum ([2]; WT, [uM] -1.43 as printed, single replicates): -1% and 1%
- IC50 [3]: 6.5 nM
- IC50 [4]: 618 nM

Compound: CCc1c(C(=O)N[C@H](C(=O)OCc2ccccc2)C(C)C)ccc2c1B(O)OC2 [AN14557]
- IC50 [1, 6]: 1.5 nM
- IC50 [2, 8]: 37 nM

Compound: CC(C)C(NC(=O)c1ccc2c(c1C1CC1)B(O)OC2)C(=O)OCc1ccccc1 (stereo not shown) [AN14577]
- IC50 [1, 6]: 240 nM
- IC50 [2, 8]: > 1250 nM

Compound: CC(C)c1c(C(=O)NC(C(=O)OCc2ccccc2)C(C)C)ccc2c1B(O)OC2 (stereo not shown) [AN14630]
- IC50 [1, 6]: 13 nM
- IC50 [2, 8]: > 1250 nM

Compound: Cc1c(C(=O)N[C@H](C(=O)O)C(C)C)ccc2c1B(O)OC2 [AN14667]
- IC50 ([1]; Fig. 2a, read-out: Extracellular IC50): 3900 nM
- activity at 0.7 µM ([2]; Trypanosoma cruzi, Vero, 72 h, read-out: % of maximum, WT, [uM] 0.70, single replicates): 43%
- activity at 1 µM ([2]; Trypanosoma cruzi, Vero, 72 h, read-out: % of maximum, WT, [uM] 1.00, single replicates): 0%
- activity at 0.7 µM ([2]; Trypanosoma cruzi, Vero, 72 h, read-out: % of maximum, WT, concentration 0.70 [uM] as printed): 43%
- activity at 0.1 µM ([2]; Trypanosoma cruzi, Vero, 72 h, read-out: % of maximum, intracellular, [uM] 0.10): 86%
- activity at 0.4 µM ([2]; Trypanosoma cruzi, Vero, 72 h, read-out: % of maximum, intracellular, [uM] 0.40): 66%
- activity at 0.7 µM ([2]; Trypanosoma cruzi, Vero, 72 h, read-out: % of maximum, intracellular, [uM] 0.70): 43%
- activity at 1.6 µM ([2]; Trypanosoma cruzi, Vero, 72 h, read-out: % of maximum, intracellular, [uM] 1.60): 0%
- IC50 [2, 7]: 5720 nM
- IC50 ([2]; Trypanosoma cruzi, Vero, intracellular amastigotes, Fig. 2a, read-out: Intracellular IC50): 3600 nM
- reduced activity relative to ester prodrug ([2]; both intra- and extracellular amastigotes): ~ 1000 fold
- % of maximum ([2]; intracellular, [uM] 1.60): 0%
- activity at 0.1 µM ([3]; [uM] 0.10, single replicates): 97%
- activity at 0.4 µM ([3]; [uM] 0.40 as printed, single replicates): 102%
- activity at 0.7 µM ([3]; [uM] 0.70, single replicates): 108%
- activity at 1 µM ([3]; [uM] 1.00, single replicates): 89%
- activity at 1.3 µM ([3]; [uM] 1.30 [sic], single replicates): 59%
- activity at 1.6 µM ([3]; [uM] 1.60 as printed, single replicates): 27%
- activity at 0.1 µM ([3]; concentration 0.10 [uM] as printed): 97%
- activity at 0.4 µM ([3]; concentration 0.40 [uM] as printed): 102%
- activity at 0.7 µM ([3]; concentration 0.70 [uM] as printed): 108%
- activity at 1 µM ([3]; concentration 1.00 [uM] as printed): 89%
- activity at 1.3 µM ([3]; concentration 1.30 [uM] as printed): 59%
- activity at 1.6 µM ([3]; concentration 1.60 [uM] as printed): 27%

Compound: Cc1c(C(=O)N[C@H](C(=O)OC2CCOCC2)C(C)C)ccc2c1B(O)OC2 [AN15572]
- IC50 [2, 7]: 11 nM

Compound: Cc1c(C(=O)NC(C(=O)OCC2CCOC2)C(C)C)ccc2c1B(O)OC2 (stereo not shown) [AN16109]
- Parasite equivalent/ 50 ng of DNA of skeletal muscle (T. cruzi Brazil strain; Fig. 3c, mice treated for 20 days): 0.11 Parasite equivalent/ 50 ng of DNA and 0.27 Parasite equivalent/ 50 ng of DNA and 0.0541 Parasite equivalent/ 50 ng of DNA and 0.0079 Parasite equivalent/ 50 ng of DNA and 0.12 Parasite equivalent/ 50 ng of DNA and 0.0367 Parasite equivalent/ 50 ng of DNA
- Parasite equivalent/ 50 ng of DNA of skeletal muscle (T. cruzi Brazil strain; Fig. 3e, mice treated for 40 days with 2.5 mg/kg, 2.5 mg/kg): 0.223 Parasite equivalent/ 50 ng of DNA and 0.2345 Parasite equivalent/ 50 ng of DNA and 0.468 Parasite equivalent/ 50 ng of DNA and 0.01907 Parasite equivalent/ 50 ng of DNA and 0.1637 Parasite equivalent/ 50 ng of DNA and 1.455 Parasite equivalent/ 50 ng of DNA and 0.04407 Parasite equivalent/ 50 ng of DNA and 0.06524 Parasite equivalent/ 50 ng of DNA
- activity at 0.00407 µM [2, 9]: 75%
- IC50 [2, 10]: 6.6 nM
- IC50 [2, 11]: 6.6 nM
- IC50 [2, 7]: 5 nM
- % of maximum ([2]; WT, [uM] 0.00 as printed, single replicates): 0%
- % of maximum ([2]; WT, [uM] -1.91 as printed, single replicates): 13%
- Parasite proliferation index of footpads infected with tdTomato-expressing T. cruzi [5]: 52.8 and 35.3 and 33.3 and 35.0 and 26.3 and 26.8 and -3.0 and 4.6 and 35.6 and 29.4
- IC50 [3]: 22.7 nM
- IC50 [4]: 2500 nM

Compound: O=C(Cn1ccnc1[N+](=O)[O-])NCc1ccccc1 [BNZ]
- Parasite proliferation index of footpads infected with tdTomato-expressing T. cruzi [5]: 23.6 and 6.5 and 46.7 and 1.3 and 29.6 and 25.1 and 51.0 and 55.7 and -21.7 and -21.2

Compound: CC[C@@H]([C@H](C)O)n1ncn(-c2ccc(N3CCN(c4ccc(OC[C@@H]5CO[C@@](Cn6cncn6)(c6ccc(F)cc6F)C5)cc4)CC3)cc2)c1=O [posaconazole]
- failures in treatment trial (T. cruzi): 100%
